# Results taken from US20100203110A1, “Therapeutics for Cancer Using 3-Bromopyruvate and Other Selective Inhibitors of ATP Production” (The Johns Hopkins University, priority 2006, published 2010).
# Legend:
# Sk-Hep1 = assay: ATP levels after treatment, Sk-Hep1; type: cell-based; conditions: 0.1, 0.2, 0.3 mM for 1 and 3 hours
# Description: (§1) ATP levels were measured in various cell lines, e.g., HepG2, Sk-Hep1, and Vx-2 after 3-bromopyruvate treatment. In each case, cells were treated with increasing concentration of 3-bromopyruvate (0.1 mM, 0.2 mM, and 0.3 mM) for 1 and 3 hours before measuring ATP levels in the cell. FIGS. 5 (A-C) show the ATP depletion observed following 3-bromopyruvate treatment in HepG2, Sk-Hep1, and Vx-2 cell lines, respectively.
# THLE-2 [1] = assay: Caspase-3 activity, THLE-2; type: cell-based; conditions: 1 mM for 3 hour
# Description: (§2) Caspase-3 activity and reduced cell viability was also measured in cell lines (HepG2, THLE-2, and VX2 cell lines) following 3-bromopyruvate treatment (1 mM for 3 hour) (FIG. 6A). Caspase-3 activity increased in each cell line following treatment and cell viability decreased following treatment. An increase in caspase-3 activity indicated the mechanism of cell death is apoptotic. FIGS. 6 B and C show cell viability is reduced in each cell line with increasing 3-bromopyruvate concentration after 1 and 3 hours of treatment.
# VX2 tumor glycolysis = assay: Glycolytic activity (lactic acid formation) of VX2 tumor slices; type: cell-based, rabbit
# Description: Glycolysis was assayed by monitoring the formation of lactic acid following the addition of glucose to a medium containing VX2 tumor slices. Specifically, freshly excised tumors were washed 3 times at 4° C. in 20 ml Chance Hess Medium containing 6.2 mM KCl, 154 mM NaCl, and 11 mM NaPi, pH 7.4. Slices, 1 g each, were then prior incubated for 30 min in a Lab-Line incubator-shaker at 37° C. in 2 ml of the same medium while shaking at 50 rpm. Glucose was then added to give a final concentration of 6 mM, after which the incubation/shaking process was continued with 0.2 ml samples being removed every 30 min for up to 2 h. These samples were subjected to centrifugation at 14,000 rpm in an Eppendorf Centrifuge (Model 5415C). Then, aliquots of the supernatant, 0.01 ml, were removed from each sample, diluted with 0.03 ml of water and subjected to lactic acid determination using the kit supplied by Sigma. The latter contains, in addition to lactic dehydrogenase and NAD+, hydrazine, and glycine buffer, pH 9.2. The mixture was incubated for 30 min at 25° C. after which the absorbance due to formation of NADH was determined at 340 nm using a Gilford Model 260 spectrophotometer. To assess the elevation of the glycolytic activity of the VX2 tumor over that of liver tissue, parallel studies were always carried out in an identical manner with 1 g liver slices derived from the host liver. Finally, in those cases where agents were tested for their capacity to inhibit glycolysis, these were introduced into the system at the prior incubation step with all subsequent steps being run in parallel with those described above for the VX2 tumor or liver alone.
# The screen included the following 9 compounds: 2-deoxyglucose (2DOG), 2-fluoro-2-deoxyglucose, 6-fluoro-6-deoxyglucose, 3-O-methyl glucose, 5-thio-D-glucose-6-phosphate, L-glucose, D-xylose, D-lyxose, and 3-bromopyruvic acid (3BrPA). The screen was conducted by incubating VX2 tumor slices in a medium containing 6 mM glucose with 6 mM of each of these agents at 37° C. for 5 h. The use of 6 mM glucose in the medium was used to mimic the maximal amount of glucose that might be in the blood in a real in vivo situation.
# To compare the inhibitory effects of 2DOG and 3BrPA on the glycolytic capacity of the isolated liver implanted VX2 tumor, various concentrations of 2DOG and 3BrPA were prior incubated for 30 min at 37° C. with 1 g VX2 tumor slices and glycolysis was monitored.
# HepG2 = assay: ATP levels after treatment, HepG2; type: cell-based, human; conditions: 0.1, 0.2, 0.3 mM for 1 and 3 hours
# Description: as §1
# VX2 rabbit liver tumors = assay: Intraarterial dose and infusion modality optimisation in VX2 liver cancer; type: in vivo
# Description: In a therapeutic dose study, 25 ml of 2.5 and 5 mM 3-BrPA were injected as a single intraarterial bolus over two minutes. Although these doses (2.5 and 5 mM) were 0.5 and 1 log higher than the 0.5 mM dose previously investigated, these doses were well within the IV therapeutic dose established in rats and rabbits.
# Since patients with HCC also suffer from underlying liver disease such as cirrhosis and hepatitis, an important translational consideration for therapy is the absolute necessity to protect and preserve healthy liver parenchyma. To lessen the degree of liver toxicity, different temporal modalities of intraarterial injection were tested. One possibility was that such a large volume, delivered within the short time of 2 minutes may have added physical and chemical toxic effects on the liver. Thus, a 1-hour continuous infusion and a serial infusion of 2 boluses administered an hour apart were compared against the original single bolus dose. The volume of 25 mL and the concentration of 2.5 mM 3-bromopyruvate were kept constant. […] In each of these experiments, rabbits were sacrificed 48 hours after treatment and representative sections obtained of tumor and normal tissues (7 slides/sample). The samples were subjected to histopathological analysis to determine percentage tumor cell death and damage to the surrounding normal liver tissue. This was then confirmed with the TUNEL assay (FIG. 7) and Ki-67 immunohistochemistry. […] The prolonged slow infusion eliminated most, if not all, of the unwanted damage to the normal liver enabling the use of a much higher dose of 3-bromopyruvate to ensure complete destruction of the tumor.
# Having determined that prolonged intraarterial infusion of 3-bromopyruvate was the optimal method of administration, a dose-response analysis was conducted. In part, this dose-response analysis was prompted by the persistent toxicity to healthy liver encountered at 2.5 mM. The objective was to optimize the 1-hour infusion in order to achieve complete tumor eradication without any toxicity to the normal liver parenchyma. Rabbits were intraarterially infused over 1-hour with doses ranging between 0.5 and 2.5 mM in 0.25 mM increments. The rabbits were fasted 24 hours prior to treatment and euthanized 48 hours after treatment. […] This total destruction was identified by histopathology (H&E) and confirmed by the TUNEL assay (FIG. 7). […] One possible explanation for this finding may be that 3-bromopyruvate at higher doses may have other cellular and chemical functions that are much more toxic to the normal liver parenchyma therein impeding the delivery of 3-bromopyruvate exclusively to the tumor. Thus, the healthy liver's ability to metabolize 3-bromopyruvate was optimal at the concentration of 1.75 mM.
# To further explore use of the continuous infusion method of delivery, the effect of a 2-hour continuous infusion of 50 mL 1.75 mM 3-BrPA was tested.
# THLE-2 [2] = assay: Cell viability, THLE-2; type: cell-based; conditions: 1 mM for 3 hour
# Description: as §2
# [3] = 25 ml 5 mM, single IA bolus over two minutes
smiles,measurement,setting,value
O=C(O)C(=O)CBr [3-bromopyruvate],ATP levels,Sk-Hep1,ATP depletion
same,Caspase-3 activity,THLE-2 [1],increased
same,inhibition of VX2 tumor glycolysis (screen),"VX2 tumor glycolysis; 6 mM agent, 6 mM glucose, VX2 tumor slices, 37° C., 5 h",almost completely inhibited
same,concentration for maximal / complete inhibition of glycolysis,"VX2 tumor glycolysis; VX2 tumor slices, 2DOG maximal (70%), 3BrPA complete",about 15 mM
same,IC50,"VX2 tumor glycolysis; prior incubated 30 min at 37° C. with 1 g VX2 tumor slices, read-out: half maximal inhibition of glycolysis",2400 µM
same,ATP levels,HepG2,ATP depletion
same,major organ toxicity,VX2 rabbit liver tumors; 1-hour intraarterial infusion of 25 mL of 1.75 mM,without any evidence of major organ toxicity
same,tumor kill and liver toxicity versus 1-hour infusion,VX2 rabbit liver tumors; 2-hour continuous infusion of 50 mL 1.75 mM,no significant difference
same,damage to the normal liver,"VX2 rabbit liver tumors; 25 mL 1.75 mM, 1-hour IA infusion",without any damage
same,tumor cell destruction,"VX2 rabbit liver tumors; 25 mL 1.75 mM, 1-hour IA infusion, 48 hours, H&E and TUNEL",100%
same,liver toxicity versus single bolus and 2 serial boluses,"VX2 rabbit liver tumors; 25 mL 2.5 mM, 1-hour continuous IA infusion, 48 hours",considerably less
same,surrounding healthy liver,"VX2 rabbit liver tumors; 25 ml 2.5 mM, single IA bolus",large areas of necrosis and fatty changes
same,survival after treatment,"VX2 rabbit liver tumors; 25 ml 2.5 mM, single IA bolus",barely able to survive for more than 48 hours
same,tumor destruction,"VX2 rabbit liver tumors; 25 ml 2.5 mM, single IA bolus over two minutes",complete tumor destruction
same,mortality,"VX2 rabbit liver tumors; 25 ml 5 mM, single IA bolus",death of all the rabbits
same,"other major organs, histopathology at necropsy","VX2 rabbit liver tumors; 25 ml 5 mM, single IA bolus",completely uneffected
same,surrounding healthy liver,VX2 rabbit liver tumors; [3],widespread necrosis
same,tumor destruction,VX2 rabbit liver tumors; [3],completely destroyed the tumor
same,toxicity to the healthy liver tissue,"VX2 rabbit liver tumors; doses higher than 1.75 mM, 1-hour IA infusion",increased toxicity
same,cell viability,THLE-2 [2],decreased
